From patent US20010008947A1, “2-AMINO-4-PHENYL-4-OXO-BUTYRIC ACID DERIVATIVES” (priority 1993, published 2001) come the findings set out here.

Structures can show the parent of a compound that is named as a salt.

In one series the target is T1, kynureninase (Rattus norvegicus, UniProt P70712).
T1 construct: from tissue; host or cells: rat liver homogenate
T1 sequence (P70712 1-464): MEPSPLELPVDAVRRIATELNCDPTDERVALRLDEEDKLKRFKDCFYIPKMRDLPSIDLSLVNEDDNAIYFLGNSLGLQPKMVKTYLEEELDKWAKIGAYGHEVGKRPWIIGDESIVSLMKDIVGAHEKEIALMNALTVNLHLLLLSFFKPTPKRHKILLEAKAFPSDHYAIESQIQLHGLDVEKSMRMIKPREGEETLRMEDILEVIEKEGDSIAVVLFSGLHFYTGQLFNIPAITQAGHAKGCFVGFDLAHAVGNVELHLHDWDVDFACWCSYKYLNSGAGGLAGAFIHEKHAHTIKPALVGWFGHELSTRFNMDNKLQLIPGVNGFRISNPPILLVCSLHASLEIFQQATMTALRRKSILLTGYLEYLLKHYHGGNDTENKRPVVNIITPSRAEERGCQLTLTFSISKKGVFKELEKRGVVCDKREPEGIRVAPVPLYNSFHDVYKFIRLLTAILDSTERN
Briefly: Kynureninase inhibition in rat liver homogenates. Format: biochemical. Particulars: rat liver homogenate; for inhibition at 1000 µM: 1 mM. As for the experimental part: The efficacy of the compounds of the invention in the inhibition of kynureninase has been evaluated in rat liver homogenates as described by, Takikawa O. et al. in J. Biol. Chem. 261 (8), 3648-3652 - 1986), with slight modifications.
HPLC method was essentially Takikawa's method, using the same Fluorimetric detection (ex. 313 nm, em. 420 nm) but changing the column (Nova-Pak C18 3.9×300 mm) and the mobile phase (phosphate buffer 80 mM, 13% CH.CN pH 2.5).

In series [1] the target is T2, rat brain kynureninase (Rattus norvegicus, UniProt P70712).
T2 construct: Partial purification of rat brain kynureninase was performed according to Lee et al; from tissue; host or cells: rat brain, partially purified enzyme
T2 sequence (P70712 1-464): T1 sequence (P70712 1-464)
Briefly: Kynureninase assay in the rat brain. The series is classed as biochemical. Particulars: rat brain homogenate; for inhibition at 100 µM: read-out: % INHIBITION AT 100 μM Kyn-Ase. The procedure:
Kynureninase assay in the rat brain
Partial purification of rat brain kynureninase was performed according to Lee et al., “Isolation and characterization of kynureninase from rat liver”, advances in Tryptophan Research, 431-434, 1992.
To perform rat brain kynureninase assay, a reaction mixture (final volume 0.2 ml) containing 100 mM tris-HCl, pH 8.0, […] pyridoxal phosphate, […] kynurenine, 20 μl of partially purified enzyme and 100 μM of inhibitor solution was prepared.
The reaction was carried out at 37° C. for 3 hours and then stopped by adding 50 μl of perchloric acid 2N. After centrifugation at 11000 rpm for 15 min., anthranilic acid in the supernatant was determined fluorimetrically in a HPLC system (as described for the liver method).

Series [2] deals with T3, kynurenine-3-hydroxylase (Rattus norvegicus, UniProt O88867).
T3 construct: Brain was homogenized in ice-cold 0.32 M sucrose and centrifugated at 12000×g; from tissue; host or cells: rat brain homogenate, washed pellet suspended
T3 sequence (O88867 whole entry): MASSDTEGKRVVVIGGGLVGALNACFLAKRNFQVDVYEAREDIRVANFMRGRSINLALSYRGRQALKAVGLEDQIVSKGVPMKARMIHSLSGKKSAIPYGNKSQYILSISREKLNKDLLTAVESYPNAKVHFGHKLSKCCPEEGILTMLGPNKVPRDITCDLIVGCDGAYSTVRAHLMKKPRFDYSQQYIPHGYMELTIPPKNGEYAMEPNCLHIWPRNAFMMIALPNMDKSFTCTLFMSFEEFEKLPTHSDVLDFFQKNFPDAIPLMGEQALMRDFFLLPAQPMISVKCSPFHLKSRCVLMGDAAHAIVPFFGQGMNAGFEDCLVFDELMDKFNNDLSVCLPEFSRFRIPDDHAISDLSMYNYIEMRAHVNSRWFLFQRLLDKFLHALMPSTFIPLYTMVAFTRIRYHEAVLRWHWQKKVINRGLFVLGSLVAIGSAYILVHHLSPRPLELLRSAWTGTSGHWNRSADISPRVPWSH
Briefly: Kynurenine-3-hydroxylase assay in the rat liver. The series is classed as biochemical. Particulars: rat liver homogenate. The procedure: Kynurenine-3-hydroxylase assay in the rat liver
Rat liver is homogenized in cold 0.32 M sucrose.
The homogenates are centrifuged at 12000×rpm for 30 minutes at 4° C. The precipitate, after having been washed three times with 0.32 M sucrose by means of centrifugation (12000×rpm for 30 min), is resuspended in 20 mM K-buffer+0.14 M KCl at pH 7 (1 g of liver in 6.5 ml ).
The reaction at 37° C. is terminated by the addition of 200 μl of […] after 10 minutes of incubation.
The concentrations of 3-hydroxy-kynurenine, produced in the absence or presence of the tested molecules are determined by HPLC with coulometric detection (pot. +0.20 V), using for the separation a reversed phase column C18, 10 cm long and a 3 μm particulate. The composition of the mobile phase was: 950 ml of water for HPLC, 20 ml of acetonitrile, 9 ml of triethylamine, 5.9 ml of phosphoric acid, 100 mg of Na EDTA and 1.5 g of heptanesulfonic acid.

Series [3] addresses T3, kynurenine-3-hydroxylase. Briefly: Kynurenine-3-hydroxylase assay in the rat brain. Particulars: rat brain homogenate; for inhibition at 100 µM: read-out: % INHIBITION AT 100 μM Kyn-3-OH-Ase; for IC50: read-out: IC50 Kyn-3-OH-Ase. Format: biochemical. The procedure:
Kynurenine-3-hydroxylase assay in the rat brain
Kynurenine-3-hydroxylase activity was quantified by the conversion of L-kynurenine to 3-hydroxykynurenine. Brain was homogenized in ice-cold 0.32 M sucrose and centrifugated at 12000×g, for 30 min at 4 C. The pellet was washed three times with 0.32 M sucrose by centrifugation and suspended in 0.14 M KCl in 20 mM K-phosphate buffer pH 7 (1 g tissue in 2 ml buffer).
The reaction mixture contained: 75 μl of suspended homogenate; 100 μl of substrate solution containing 50 mM K-phosphate buffer pH 7.5, 2 mM MgCl2, 0.4 mM NADPH and 50 μM L-kynurenine (final concentration); 25 μl of different concentrations of inhibitor solutions.
The reaction was stopped by addition of 200 μl of 1 M HClO4 after 60 min. incubation.
3-hydroxykynurenine formed was quantified by HPLC with coulometric detection (working voltage was +0.2 V). The column was a 10 cm C18 reversed phase (3 μm). The mobile phase consisted of 950 ml distilled water. 20 ml acetonitrile, 9 ml triethylamine, 5.9 ml phosphoric acid, 100 mg sodium EDTA and 1.5 g heptanesulfonic acid. The flow-rate was 1 ml/min.

The target in series [4] is T2, rat brain kynureninase. Description: Kynureninase assay in the rat brain. Format: biochemical. The following applies: rat brain homogenate; read-out: IC50 Kyn-Ase.

`COc1ccc(Cl)cc1C(=O)CC(N)C(=O)O` (racemic) (as salt: hydrochloride) [FCE 28836, (R,S)-2-amino-4-(2′-methoxy-5′-chlorophenyl-4-oxo-butyric acid]: the melting point (in general, the temperature of the solid-liquid transition) is 212 to 213 °C.

For `NC(CC(=O)c1ccccc1)C(=O)O` (racemic) [FCE 27377, (R,S)-2-amino-4-phenyl-4-oxo-butyric acid], on kynureninase, testing at 100 µM gave an inhibition of 46% and the inhibition (commonly the share of the control response that was lost under treatment) at 1000 µM turned out to be 86%. At rat brain kynureninase [1], the inhibition at 100 µM worked out at 35.6%.

Turning to `COc1ccccc1C(=O)CC(N)C(=O)O` (racemic) [FCE 27384, (R,S)-2-amino-4-(2′-methoxyphenyl)-4-oxo-butyric acid], the melting point was 115 °C (dec.). At kynureninase, this compound registered an inhibition at 100 µM of 96% and an inhibition at 1000 µM of 97%. Also, at kynurenine-3-hydroxylase [2] (100 μM), testing at 100 µM gave an inhibition of 3%. Further, the inhibition at 1000 µM at kynurenine-3-hydroxylase [2] (1 mM) was 30%. In addition, the inhibition at 100 µM at rat brain kynureninase [1] amounted to 86%. The inhibition at 100 µM at kynurenine-3-hydroxylase [3] turned out to be 4%. For the same compound, on rat brain kynureninase [4], the IC50 (in general, the concentration needed to halve the response being measured) turned out to be 6 µM.

Consider `COc1ccc(C(=O)CC(N)C(=O)O)cc1` (racemic) [FCE 28628, (R,S)-2-amino-4-(4′-methoxyphenyl)-4-oxo-butyric acid], for which the melting point was 160 °C (dec.). Moreover, on rat brain kynureninase [1], the inhibition at 100 µM amounted to 17%. Moreover, on kynurenine-3-hydroxylase [3], the inhibition at 100 µM worked out at 79% and the IC50 was found to be 30 µM.

With `COc1cccc(C(=O)C[C@@H](N)C(=O)O)c1` (racemic) [FCE 28629, (R,S)-2-amino-4-(3′-methoxyphenyl)-4-oxo-butyric acid], the “% INHIBITION AT 100 μM Kyn-Ase” value on rat brain kynureninase [1] stood at 54%. The “% INHIBITION AT 100 μM Kyn-3-OH-Ase” value on kynurenine-3-hydroxylase [3] came out at 29%.

As for `Cc1ccccc1C(=O)CC(N)C(=O)O` (racemic) [FCE 28630, (R,S)-2-amino-4-(2′-methylphenyl)-4-oxo-butyric acid], the melting point was 192 to 193 °C (dec.). Besides, on rat brain kynureninase [1], the inhibition at 100 µM was 40%. At kynurenine-3-hydroxylase [3], the inhibition at 100 µM turned out to be 81% and the IC50 worked out at 23 µM.

In the case of `N[C@H](CC(=O)c1ccccc1F)C(=O)O` (racemic) [FCE 28631, (R,S)-2-amino-4-(2′-fluorophenyl)-4-oxo-butyric acid], on rat brain kynureninase [1], the “% INHIBITION AT 100 μM Kyn-Ase” value was found to be 52%. Moreover, the “% INHIBITION AT 100 μM Kyn-3-OH-Ase” value at kynurenine-3-hydroxylase [3] came out at 47%.

As for `N[C@H](CC(=O)c1cccc(C(F)(F)F)c1)C(=O)O` (racemic) [FCE 28680, (R,S)-2-amino-4-(3′-trifluoromethylphenyl)-4-oxo-butyric acid], the “% INHIBITION AT 100 μM Kyn-Ase” value at rat brain kynureninase [1] worked out at 67%. Besides, the “% INHIBITION AT 100 μM Kyn-3-OH-Ase” value at kynurenine-3-hydroxylase [3] amounted to 17%.

The compound `NC(CC(=O)c1ccc(Cl)cc1)C(=O)O` (racemic) [FCE 28751, (R,S)-2-amino-4-(4′-chlorophenyl)-4-oxo-butyric acid] returned a melting point of 204 to 206 °C. Moreover, the inhibition at 100 µM on rat brain kynureninase [1] was determined as 0%. On kynurenine-3-hydroxylase [3], the inhibition at 100 µM worked out at 85% and the IC50 was determined as 7 µM.

Consider `NC(CC(=O)c1cccc(Cl)c1)C(=O)O` (racemic) [FCE 28752, (R,S)-2-amino-4-(3′-chlorophenyl)-4-oxo-butyric acid], for which the melting point is 198 to 200 °C (dec.). At rat brain kynureninase [1], the inhibition at 100 µM was determined as 60%. On kynurenine-3-hydroxylase [3], the inhibition at 100 µM was determined as 93% and the IC50 turned out to be 0.4 µM.

Turning to `N[C@H](CC(=O)c1ccccc1Cl)C(=O)O` (racemic) [FCE 28753, (R,S)-2-amino-4-(2′-chloroohenyl)-4-oxo-butyric acid], the “% INHIBITION AT 100 μM Kyn-Ase” value at rat brain kynureninase [1] is 71%. Besides, the “% INHIBITION AT 100 μM Kyn-3-OH-Ase” value at kynurenine-3-hydroxylase [3] came to 22%.

Consider `NC(CC(=O)c1cccc(F)c1)C(=O)O` (racemic) [FCE 28764, (R,S)-2-amino-4-(3′-fluorophenyl)-4-oxo-butyric acid], for which the melting point was 194 to 195 °C (dec.). In addition, at rat brain kynureninase [1], the inhibition at 100 µM was 0%. In addition, on kynurenine-3-hydroxylase [3], the inhibition at 100 µM was found to be 93% and the IC50 came to 0.9 µM.

For `COc1ccc(F)cc1C(=O)C[C@@H](N)C(=O)O` (racemic) [FCE 28766, (R,S)-2-amino-4-(2′-methoxy-5′-fluoropheryl)-4-oxo-butyric acid], the “% INHIBITION AT 100 μM Kyn-Ase” value at rat brain kynureninase [1] amounted to 81%. The “% INHIBITION AT 100 μM Kyn-3-OH-Ase” value on kynurenine-3-hydroxylase [3] is 2%.

As for `NC(CC(=O)c1ccc(Cl)c(Cl)c1)C(=O)O` (racemic) [FCE 28833, (R,S)-2-amino-4-(3′,4′-dichlorophenyl)-4-oxo-butyric acid], at kynurenine-3-hydroxylase [3], the inhibition at 100 µM came out at 99% and the IC50 came to 0.2 µM.

For the compound `COc1ccc(Cl)cc1C(=O)CC(N)C(=O)O` (racemic) [FCE 28836, (R,S)-2-amino-4-(2′-methoxy-5′-chlorophenyl-4-oxo-butyric acid], at kynurenine-3-hydroxylase [3], the inhibition at 100 µM is 73% and the IC50 was 33 µM.

In the case of `N[C@@H](CC(=O)c1ccccc1)C(=O)O` [FCE 28468, (S)-2-amino-4-phenyl-4-oxo-butyric acid], the inhibition at 100 µM on rat brain kynureninase [1] was found to be 61%.

As for `N[C@H](CC(=O)c1ccccc1)C(=O)O` [FCE 28469, (R)-2-amino-4-phenyl-4-oxo-butyric acid], the inhibition at 100 µM at rat brain kynureninase [1] was 19%.

Turning to `COc1ccccc1C(=O)C[C@H](N)C(=O)O` [FCE 28626, (S)-2-amino-4-(2′-methoxyphenyl)-4-oxo-butyric acid], the melting point was 130 °C (dec.).
